Earlier results, collected in US5565430A, “Azaaspartic acid analogs as interleukin-1β converting enzyme inhibitors” (Sterling Winthrop Inc., priority 1994, dated 1996).

B1: Soluble IL-1 receptor: Soluble IL-1 receptor (protein, UniProt P14778 18-336, looked up)
extracellular domain: LEADKCKEREEKIILVSSANEIDVRPCPLNPNEHKGTITWYKDDSKTPVSTEQASRIHQHKEKLWFVPAKVEDSGHYYCVVRNSSYCLRIKISAKFVENEPNLCYNAQAIFKQKLPVAGDGGLVCPYMEFFKNENNELPKLQWYKDCKPLLLDNIHFSGVKDRLIVMNVAEKHRGNYTCHASYTYLGKQYPITRVIEFITLEENKPTRPVIVSPANETMEVDLGSQIQLICNVTGQLSDIAYWKWNGSVIDEDDPVLGEDYYSVENPANKRRSTLITVLNISEIESRFYKHPFTCFAKNTHGIDAAYIQLIYPVTNFQK
modifications: extracellular domain

Assays:
[1] = test system: chronic myelogenous leukemia cells; details: cells removed from leukemia patients
[2] = test system: patients with rheumatoid arthritis; details: subcutaneous, open-label
[3] = test system: rabbit immune complex colitis; details: animal model of colitis
[4] = test system: PG-APS model of arthritis in rats
[5] = test system: patients with active rheumatoid arthritis; details: subcutaneous, after three weeks of daily treatment
allergic subjects = details: randomized, double-blind, placebo-controlled

Molecule | colony growth of leukemia cells [1] | efficacy in rheumatoid arthritis trial [2] | tissue necrosis and inflammatory cells in colon [3] | joint swelling [4] | antiinflammatory activity in rheumatoid arthritis patients [5] | cutaneous late-phase allergic reaction (allergic subjects)
IL-1ra: IL-1 receptor antagonist, naturally occurring | inhibit colony growth | shows efficacy | reduced tissue necrosis and the number of inflammatory cells in the colon | supresses joint swelling | – | –
Antril: The IL-1 receptor antagonist, Antril (Synergen) | – | – | – | – | decrease in joint swelling and less disease activity | –
B1 | inhibit colony growth | – | – | – | – | significantly reduces clinically the cutaneous late-phase allergic reaction
